Assay results from US9127001B2, “Substituted 4,5,6,7-tetrahydro-1H-pyrazolo[4,3-c]pyridines, their use as medicament, and pharmaceutical preparations comprising them” (Sanofi, priority 2011, dated 2015).

Target: Human TASK-1 channels (Homo sapiens (Human), UniProt O14649)
Assay: Activity on the TASK-1 channel in Xenopus oocytes (two-microelectrode voltage clamp)
Format: cell-based
Details: not given
Experimental: Human TASK-1 channels were expressed in Xenopus oocytes. For this purpose, oocytes were isolated from Xenopus laevis and defoliculated. Subsequently, TASK-1-encoding RNA synthesized in vitro was injected into oocytes. […] Data were acquired and analyzed using a TEC-10cx amplifier (NPI Electronic, Tamm, Germany) connected to an ITC-16 interface (Instrutech Corp., Long Island, USA) and Pulse software (HEKA Elektronik, Lambrecht, Germany). […] Oocytes were continuously superfused with ND96 buffer containing: NaCl 96 mM, KCl 2 mM, CaCl2 1.8 mM, MgCl2 1 mM, HEPES 5 mM (pH adjusted to 7.4 with NaOH). All experiments were performed at room temperature.
Test substances were consecutively added to the bath solution at rising concentrations. […] IC50 values were obtained by fitting the data to the general dose-response equation.

Human TASK-1 channels, sequence (O14649 whole entry): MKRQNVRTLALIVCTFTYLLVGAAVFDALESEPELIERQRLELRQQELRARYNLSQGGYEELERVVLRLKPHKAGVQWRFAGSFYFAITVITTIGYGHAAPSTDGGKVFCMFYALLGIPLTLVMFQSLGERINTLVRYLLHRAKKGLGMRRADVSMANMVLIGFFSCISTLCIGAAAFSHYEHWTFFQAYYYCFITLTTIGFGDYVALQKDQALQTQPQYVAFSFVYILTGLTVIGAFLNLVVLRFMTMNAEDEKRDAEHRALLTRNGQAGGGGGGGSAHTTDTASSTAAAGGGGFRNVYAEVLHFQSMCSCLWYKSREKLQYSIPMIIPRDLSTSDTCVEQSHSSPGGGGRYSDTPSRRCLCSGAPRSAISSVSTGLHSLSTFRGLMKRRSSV

SMILES	inhibition at 5 µM [%]
CC(=O)N1CCc2c(c(-c3cccc(C)n3)nn2Cc2ccc(F)cc2F)C1 [Example 6v, 1-[1-(2,4-Difluoro-benzyl)-3-(6-methyl-pyridin-2-yl)-1,4,6,7-tetrahydro-pyrazolo[4,3-c]pyridin-5-yl]-ethanone]	73
CC(=O)N1CCc2c(c(-c3cccc(C(F)(F)F)n3)nn2C(C)c2ccc(F)cc2)C1 (centres unmarked) [Example 6u, 1-[1-[1-(4-Fluoro-phenyl)-ethyl]-3-(6-trifluoromethyl-pyridin-2-yl)-1,4,6,7-tetrahydro-pyrazolo[4,3-c]pyridin-5-yl]-ethanone]	89
CC(C)(C)OCC(=O)N1CCc2c(c(-c3cccc(C#N)c3)nn2Cc2ccc(F)cc2F)C1 [Example 8d, 3-[5-(2-tert-Butoxy-acetyl)-1-(2,4-difluoro-benzyl)-4,5,6,7-tetrahydro-1H-pyrazolo[4,3-c]pyridin-3-yl]-benzonitrile]	75
CCOC(=O)N1CCc2c(c(-c3cccc(C#N)c3)nn2Cc2ccc(F)cc2F)C1 [Example 8y, 3-(3-Cyano-phenyl)-1-(2,4-difluoro-benzyl)-1,4,6,7-tetrahydro-pyrazolo[4,3-c]pyridine-5-carboxylic acid ethyl ester]	77
COc1ccnc(Cn2nc(-c3cccc(C(F)(F)F)c3)c3c2CCN(C(C)=O)C3)c1 [Example 6q, 1-[1-(4-Methoxy-pyridin-2-ylmethyl)-3-(3-trifluoromethyl-phenyl)-1,4,6,7-tetrahydro-pyrazolo[4,3-c]pyridin-5-yl]-ethanone]	70
CC(=O)N1CCc2c(c(-c3cccc(C)c3)nn2Cc2ccc(Cl)nc2)C1 [Example 6p, 1-[1-(6-Chloro-pyridin-3-ylmethyl)-3-m-tolyl-1,4,6,7-tetrahydro-pyrazolo[4,3-c]pyridin-5-yl]-ethanone]	88
CC(=O)N1CCc2c(c(-c3cccc(Cl)c3)nn2Cc2ncccc2C)C1 [Example 6t, 1-[3-(3-Chloro-phenyl)-1-(3-methyl-pyridin-2-ylmethyl)-1,4,6,7-tetrahydro-pyrazolo[4,3-c]pyridin-5-yl]-ethanone]	62
CC(=O)N1CCc2c(c(-c3ccnc(Br)c3)nn2Cc2ccc(F)cc2F)C1 [Example 6k, 1-[3-(2-Bromo-pyridin-4-yl)-1-(2,4-difluoro-benzyl)-1,4,6,7-tetrahydro-pyrazolo[4,3-c]pyridin-5-yl]-ethanone]	78

Same assay, conditions: human TASK-1 expressed in Xenopus oocytes, currents during pulses to 40 mV, room temperature

SMILES	IC50 [nM]
CC(=O)N1CCc2c(c(-c3cccc(C(F)(F)F)c3)nn2Cc2ncccc2C)C1 [Example 6d, 1-[1-(3-Methyl-pyridin-2-ylmethyl)-3-(3-trifluoromethyl-phenyl)-1,4,6,7-tetrahydro-pyrazolo[4,3-c]pyridin-5-yl]-ethanone]	422
N#Cc1cccc(-c2nn(Cc3ccc(F)cc3F)c3c2CN(C(=O)c2ccncc2F)CC3)c1 [Example 8u, 3-[1-(2,4-Difluoro-benzyl)-5-(3-fluoro-pyridine-4-carbonyl)-4,5,6,7-tetrahydro-1H-pyrazolo[4,3-c]pyridin-3-yl]-benzonitrile]	416
COc1cc(-c2nn(Cc3ccc(F)cc3F)c3c2CN(C(C)=O)CC3)ccc1F [Example 6ax, 1-[1-(2,4-Difluoro-benzyl)-3-(4-fluoro-3-methoxy-phenyl)-1,4,6,7-tetrahydro-pyrazolo[4,3-c]pyridin-5-yl]-ethanone]	975
CC(=O)N1CCc2c(c(-c3cccc(Br)n3)nn2Cc2ccc(F)cc2F)C1 [Example 6w, 1-[3-(6-Bromo-pyridin-2-yl)-1-(2,4-difluoro-benzyl)-1,4,6,7-tetrahydro-pyrazolo[4,3-c]pyridin-5-yl]-ethanone]	< 10000
CC(=O)N1CCc2c(c(-c3cccc(F)c3)nn2Cc2ccc(F)cc2F)C1 [Example 6bj, 1-[1-(2,4-Difluoro-benzyl)-3-(3-fluoro-phenyl)-1,4,6,7-tetrahydro-pyrazolo[4,3-c]pyridin-5-yl]-ethanone]	1160
COc1ccc(F)c(-c2nn(Cc3ccc(F)cc3F)c3c2CN(C(C)=O)CC3)c1 [Example 6bh, 1-[1-(2,4-Difluoro-benzyl)-3-(2-fluoro-5-methoxy-phenyl)-1,4,6,7-tetrahydro-pyrazolo[4,3-c]pyridin-5-yl]-ethanone]	< 10000
CC(=O)N1CCc2c(c(-c3cncc(Br)c3)nn2Cc2ccc(F)cc2F)C1 [Example 6m, 1-[3-(5-Bromo-pyridin-3-yl)-1-(2,4-difluoro-benzyl)-1,4,6,7-tetrahydro-pyrazolo[4,3-c]pyridin-5-yl]-ethanone]	2440
N#Cc1cccc(-c2nn(Cc3ccc(F)cc3F)c3c2CN(C(=O)c2ccncn2)CC3)c1 [Example 8v, 3-[1-(2,4-Difluoro-benzyl)-5-(pyrimidine-4-carbonyl)-4,5,6,7-tetrahydro-1H-pyrazolo[4,3-c]pyridin-3-yl]-benzonitrile]	864
O=C(Cc1ccccc1)N1CCc2c(c(-c3ccc(F)cc3)nn2Cc2ccccc2)C1 [Example 8r, 1-[1-Benzyl-3-(4-fluoro-phenyl)-1,4,6,7-tetrahydro-pyrazolo[4,3-c]pyridin-5-yl]-2-phenyl-ethanone]	1140
CC(=O)N1CCc2c(c(-c3cccc(C(F)(F)F)c3)nn2Cc2ccc(C#N)cc2)C1 [Example 6am, 4-[5-Acetyl-3-(3-trifluoromethyl-phenyl)-4,5,6,7-tetrahydro-pyrazolo[4,3-c]pyridin-1-ylmethyl]-benzonitrile]	114
CS(=O)(=O)c1cccc(C(=O)N2CCc3c(c(-c4cccc(C#N)c4)nn3Cc3ccc(F)cc3F)C2)c1 [Example 8e, 3-[1-(2,4-Difluoro-benzyl)-5-(3-methanesulfonyl-benzoyl)-4,5,6,7-tetrahydro-1H-pyrazolo[4,3-c]pyridin-3-yl]-benzonitrile]	1620
COc1cccc(-c2nn(Cc3ccc(F)cc3F)c3c2CN(C(C)=O)CC3)c1 [Example 6at, 1-[1-(2,4-Difluoro-benzyl)-3-(3-methoxy-phenyl)-1,4,6,7-tetrahydro-pyrazolo[4,3-c]pyridin-5-yl]-ethanone]	720
CC(=O)N1CCc2c(c(-c3ccc(F)cc3)nn2Cc2ccc(C(F)(F)F)cc2)C1 [Example 6as, 1-[3-(4-Fluoro-phenyl)-1-(4-trifluoromethyl-benzyl)-1,4,6,7-tetrahydro-pyrazolo[4,3-c]pyridin-5-yl]-ethanone]	659
Cn1cncc1C(=O)N1CCc2c(c(-c3cccc(C#N)c3)nn2Cc2ccc(F)cc2F)C1 [Example 8w, 3-[1-(2,4-Difluoro-benzyl)-5-(3-methyl-3H-imidazole-4-carbonyl)-4,5,6,7-tetrahydro-1H-pyrazolo[4,3-c]pyridin-3-yl]-benzonitrile]	1150
N#Cc1cccc(-c2nn(Cc3ccc(F)cc3F)c3c2CN(C(=O)C2CCOC2)CC3)c1 (centres unmarked) [Example 8m, 3-[1-(2,4-Difluoro-benzyl)-5-(tetrahydro-furan-3-carbonyl)-4,5,6,7-tetrahydro-1H-pyrazolo[4,3-c]pyridin-3-yl]-benzonitrile]	890
CC(=O)N1CCc2c(c(-c3ccc(F)cc3)nn2Cc2c(F)cccc2F)C1 [Example 6aq, 1-[1-(2,6-Difluoro-benzyl)-3-(4-fluoro-phenyl)-1,4,6,7-tetrahydro-pyrazolo[4,3-c]pyridin-5-yl]-ethanone]	359
N#Cc1cccc(-c2nn(Cc3ccc(F)cc3F)c3c2CN(C(=O)C2CCC2)CC3)c1 [Example 8i, 3-[5-Cyclobutane-carbonyl-1-(2,4-difluoro-benzyl)-4,5,6,7-tetrahydro-1H-pyrazolo[4,3-c]pyridin-3-yl]-benzonitrile]	64
CC(=O)N1CCc2c(c(-c3cc(C#N)ccn3)nn2Cc2ccc(F)cc2F)C1 [Example 13a, 2-[5-Acetyl-1-(2,4-difluoro-benzyl)-4,5,6,7-tetrahydro-1H-pyrazolo[4,3-c]pyridin-3-yl]-isonicotinonitrile]	422
CNC(=O)N1CCc2c(c(-c3cccc(C#N)c3)nn2Cc2ccc(F)cc2F)C1 [Example 12a, 3-(3-Cyano-phenyl)-1-(2,4-difluoro-benzyl)-1,4,6,7-tetrahydro-pyrazolo[4,3-c]pyridine-5-carboxylic acid methylamide]	380
CC(=O)N1CCc2c(c(-c3ccc(F)cc3)nn2C(C)c2ccc(F)cc2)C1 (single isomer, unassigned; (-)) [Example 6bf, (−)-1-{3-(4-Fluoro-phenyl)-1-[1-(4-fluoro-phenyl)-ethyl]-1,4,6,7-tetrahydro-pyrazolo[4,3-c]pyridin-5-yl}-ethanone]	500
CC(=O)N1Cc2c(-c3ccc(F)cc3)nn(Cc3ccc(F)cc3F)c2CC1C (centres unmarked) [Example 8z, 1-[1-(2,4-Difluoro-benzyl)-3-(4-fluoro-phenyl)-6-methyl-1,4,6,7-tetrahydro-pyrazolo[4,3-c]pyridin-5-yl]-ethanone]	511
CC(c1ccc(F)cc1)n1nc(-c2ccc(F)cc2)c2c1CCN(C(=O)N1CCOCC1)C2 (single isomer, unassigned) [Example 12b, {3-(4-Fluoro-phenyl)-1-[1-(4-fluoro-phenyl)-ethyl]-1,4,6,7-tetrahydro-pyr-azolo[4,3-c]pyridin-5-yl}-morpholin-4-yl-methanone]	511
CC(=O)N1CCc2c(c(-c3ccc(Cl)s3)nn2Cc2ccc(F)cc2F)C1 [Example 6ak, 1-[3-(5-Chloro-thiophen-2-yl)-1-(2,4-difluoro-benzyl)-1,4,6,7-tetrahydro-pyrazolo[4,3-c]pyridin-5-yl]-ethanone]	270
N#Cc1cccc(-c2nn(Cc3ccc(F)cc3F)c3c2CN(C(=O)C2CCCC2)CC3)c1 [Example 8j, 3-[5-Cyclopentane-carbonyl-1-(2,4-difluoro-benzyl)-4,5,6,7-tetrahydro-1H-pyrazolo[4,3-c]pyridin-3-yl]-benzonitrile]	722
